The numbers were not newly measured in patent US20070092568A1 (priority 2005, published 2007), which cites them from elsewhere.

Where a name gives a salt, the structure may show the parent alone.

`COc1ccc2c3c1O[C@H]1C[C@@H](O)C=C[C@@]31CCN(C)C2` [Galantamine hydrobromide, (4aS,6R,8aS)-4a,5,9,10,11,12-hexahydro-3-methoxy-11-methyl-6H-benzofuro[3a,3,2-ef][2]benzazepin-6-ol]: the Solubility in water entry is listed as “sparingly soluble in water”.
